We go through 5 molecules from paper PMC8449414, “Rational design of ASCT2 inhibitors using an integrated experimental-computational approach” (Proceedings of the National Academy of Sciences of the …, 2021).

Holding throughout (assay type): cell-based
In assay [1] the target is T1, rASCT2 (Rattus norvegicus, UniProt D3ZJ25).
T1 construct: expressed in transfected cells; host or cells: HEK293 (ATCC CRL-11268), transient transfection
T1 sequence (D3ZJ25 1-555): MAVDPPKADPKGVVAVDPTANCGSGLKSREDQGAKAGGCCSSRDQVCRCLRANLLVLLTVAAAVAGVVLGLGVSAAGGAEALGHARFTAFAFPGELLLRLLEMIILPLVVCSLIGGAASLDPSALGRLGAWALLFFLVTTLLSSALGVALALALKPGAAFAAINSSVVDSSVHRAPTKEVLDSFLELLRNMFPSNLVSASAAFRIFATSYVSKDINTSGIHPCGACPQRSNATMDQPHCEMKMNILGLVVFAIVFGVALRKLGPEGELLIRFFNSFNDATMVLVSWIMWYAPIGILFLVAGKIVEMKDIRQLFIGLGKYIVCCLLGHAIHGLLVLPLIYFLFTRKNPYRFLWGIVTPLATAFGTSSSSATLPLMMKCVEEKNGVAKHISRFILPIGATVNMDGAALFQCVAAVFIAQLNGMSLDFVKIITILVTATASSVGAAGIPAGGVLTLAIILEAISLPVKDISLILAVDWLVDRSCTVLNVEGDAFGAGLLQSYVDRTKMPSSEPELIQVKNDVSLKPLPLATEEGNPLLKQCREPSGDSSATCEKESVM
The experiment in a line: Electrophysiology: inhibition of leak anion current in transfected HEK293 cells. Particulars: for inhibition of the leak anion current (in words): concentration range tested up to 200 µM, Ki could not be obtained; for Km: substrate dose response of anion current, rat ASCT2-expressing HEK293 cells, read-out: apparent Km. On the procedure:
(§1) Cell culture and transfection
(§2) Human embryonic kidney 293 (HEK293, ATCC CRL -11268) cells were cultured in DMEM media supplemented with 10% (v/v) fetal bovine serum (FBS), 2 mM glutamine, 1% penicillin streptomycin solution, 1 mM sodium pyruvate and non -essential amino acids. Cells were maintained at 370C in a fully humidified atmosphere containing 5% CO2. rASCT2, hASCT2, hASCT1, EAAT1, EAAT2, EAAT3, EAAT5 and YFP complementary DNAs were each used to transiently transfect HEK293 using POLYPLUS Jet-prime transfection reagent. Cells were analyzed using electrophysiological techniques 24-40 hours after transfection.
(§3) Electrophysiological techniques
(§4) Electrophysiological experiments were performed as described previously 1,2. Stock solutions of inhibitor was prepared in dimethyl sulfoxide (DMSO) up to 100 mM.
(§5) Dilutions to working concentrations were made using external buffer. The highest

Assay [2] has as its target T2, hASCT2 (Homo sapiens, UniProt Q15758).
T2 construct: expressed in transfected cells; host or cells: HEK293 (ATCC CRL-11268), transient transfection
T2 sequence (Q15758 1-541): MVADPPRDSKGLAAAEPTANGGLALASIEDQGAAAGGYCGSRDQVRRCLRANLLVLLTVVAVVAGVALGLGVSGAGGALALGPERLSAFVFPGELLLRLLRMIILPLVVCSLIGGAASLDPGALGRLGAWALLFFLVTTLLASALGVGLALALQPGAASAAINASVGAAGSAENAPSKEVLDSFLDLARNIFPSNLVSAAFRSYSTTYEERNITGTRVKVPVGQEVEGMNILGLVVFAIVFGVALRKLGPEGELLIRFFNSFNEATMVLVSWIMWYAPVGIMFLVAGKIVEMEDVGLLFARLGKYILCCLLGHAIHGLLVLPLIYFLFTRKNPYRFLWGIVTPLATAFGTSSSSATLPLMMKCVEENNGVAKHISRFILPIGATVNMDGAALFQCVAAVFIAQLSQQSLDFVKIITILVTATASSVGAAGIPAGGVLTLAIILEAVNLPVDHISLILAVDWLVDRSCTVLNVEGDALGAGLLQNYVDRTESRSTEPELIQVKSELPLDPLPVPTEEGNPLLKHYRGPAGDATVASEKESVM
The assay is described as above. As to conditions: HEK293 cells, 0 mV, 130 mM NaSCN internal, 140 mM NaCl external; No current = no inhibition of anion leak current up to highest concentration tested (§ 20-50, || 100-400, # 1500-2500 µM); read-out: Binding affinity Ki (apparent Ki). Here is the method: as §1, §2, §3, §4, §5

For assay [3], the target named is T1, rASCT2. Nature of the assay: Inhibitor dissociation kinetics by ligand displacement with alanine (rapid solution exchange). As to conditions: 5 mM alanine rapidly applied, no inhibitor (control), 0 mV. Here is the method:
Fig. 2. […] (A) Electrophysiological recordings obtained after application of alanine (red trace) and increasing concentrations of Lc-BPE (black traces). The times of application of alanine or Lc-BPE are shown by a gray bar (top). (B and C) Lc-BPE inhibitor dose–response relationships for rASCT2 and hASCT2, respectively. […] Currents were normalized to the current recorded after application of 10 µM inhibitor concentration. (D) Inhibition of glutamine uptake (5 µM external concentration) in the presence of varying concentration of Lc-BPE and 5 µM glutamine measured in proteoliposomes reconstituted with purified hASCT2. […] Errors bars represent SEM from at least two biologically independent measurements. (E) Current recorded after rapid solution exchange from extracellular buffer (control, gray bar, black trace) to a solution containing buffer + 5 mM alanine (white bar). For the red trace, the cell was preincubated with 10 µM Lc-BPE (red bar, red trace) followed by rapid application of 5 mM alanine. All current recordings were performed at 0 mV in the presence of 130 mM NaSCN internal and 140 mM NaCl external (homoexchange) solutions. […]
To test this, we measured the dissociation kinetics of Lc-BPE using a ligand displacement approach. First, rASCT2-expressing cells were preincubated with a saturating solution of Lc-BPE (10 µM), and subsequently the inhibitor was displaced using a supersaturating concentration of the substrate L-alanine (5 mM) (Fig. 2 E and F).

Turning to `O=C(O[C@H]1CN[C@H](C(=O)O)C1)c1ccc(-c2ccccc2)cc1` [Lt-BPE], the Ki in assay [1] (HEK293 cells, 0 mV, 130 mM NaSCN internal, 140 mM NaCl external, No current = no inhibition of anion leak current up to highest concentration tested (§ 20-50, || 100-400, # 1500-2500 µM), read-out: Binding affinity Ki (apparent Ki)) was found to be 232 ± 44 µM; in assay [2], 205 ± 27 µM. As for `O=C(O[C@@H]1CN[C@@H](C(=O)O)C1)c1ccc(-c2ccccc2)cc1` [Dt-BPE], the “inhibition of the leak anion current (in words)” value in assay [1] is “unspecific”. The Km is the concentration of substrate that gives half-maximal velocity. Turning to `C[C@H](N)C(=O)O` [alanine, L-alanine, reference compound], the “rate constant of the current rise” value is 24.6 ± 5.2 s⁻¹ in assay [3] and 24 s⁻¹ in assay [3] (listed as Alanine). In addition, the Michaelis constant (Km) in assay [1] (0 mV) came out at 318 ± 17 µM. For `O=C(O[C@H]1CN[C@@H](C(=O)O)C1)c1ccc(-c2ccccc2)cc1` [Dc-BPE], the “inhibition of the leak anion current (in words)” value in assay [1] is on record as “too small at high compound concentrations”.

Regarding `NC(=O)CC[C@H](N)C(=O)O` [glutamine, L-glutamine, reference compound], the Km in assay [1] (0 mV) is 233 ± 41 µM.
